Patent US8394776B2, “Use of ursolic acid saponin,oleanolic acid saponin in preparation of increasing leucocytes and/or platelet medicine” (Chengdu Di'Ao Jiuhong Pharmaceutical Factor, priority 2007, dated 2013)
Marks after values point to notes of the source that are not given here.

Tests used:
platelets (PLT) = assay: Cyclophosphamide-induced leukopenia in mice: platelets (PLT); type: in vivo, Kunming mice; conditions: Experimental Example 3
Method: (§1) Further, in vivo experiments were carried out on the compounds involved in the present invention using animal models of cyclophosphamide-induced leukopenia in mice. Experimental methods are briefed as follows: Healthy Kunming mice, of which half were male and the other half were female, were divided into groups, each group incuding 18 mice, and those mice weighing 18-22 g were selected and divided into groups randomly according to their body weights. Each group was given a different drug, wherein the negative control group and model control group were given physiological saline of the same volume, and the positive control group was treated with granulocyte colony-stimulating factors 40 μg/kg through subcutaneous injection (injection volume: 0.1 ml/10 g). After administration for 3 days, except the negative control group, other treatment groups were treated with 100 mg/kg cyclophosphamide (CY) through lumbar injection once a day for three days to cause a decrease of leukocytes in mice. A drop of blood (20 μl) was taken from posterior orbital venous plexus to detect the hemogram to observe the situation of leukocytes and platelets on day 1, day 3 and/or day 5 after the final lumbar injection of cyclophosphamide (i.e day 1, day 3 and/or day 5 after modeling) (Note: Each treatment group was administrated incessantly). The mice were killed on day 5 after the final lumbar injection of cyclophosphamide (i.e day 5 after modeling), and the leukocytes (WBC) and platelets (PLT) of the hemogram index were counted.
(§2) The purpose of this experiment is to study the effect of G-1, G-3, G-11 and G-12 of ursolic acid saponin and oleanolic acid saponin in increasing platelets, and to observe whether G-11 and G-12 of oleanolic acid saponin have an effect in increasing leukocytes.

erythrocytes = assay: Comparison of hemolytic activities (HD50); type: cell-based, rabbit; conditions: 10% rabbit erythrocyte suspension; 37° C., 1 hour; from linear regression over 40-200 μg/ml
Method: The test samples were dissolved in DMSO/physiological saline (1:4) as a solvent to generate the tested concentration gradients of 40, 80, 120, 160, 200 μg/ml. Blood (25 ml) was taken from a rabbit heart, poured into an erlenmeyer flask containing glass beads and shook gently for 10 min to remove fibrinogen so as to convert the blood into defidrinated blood. The resultant blood was transferred into a graduation centrifugal tube. About 10 times physiological saline was added, shook up and centrifuged at 2000 r/min for 5 minutes. The supernatant was removed, and the precipitated erythrocytes were washed with physiological saline again by the above method for 4 times until the supernatant was colorless and transparent. The resulant erythrocytes were prepared into a 10% suspension using physiological saline for testing. 250 μl of the 10% erythrocyte suspension was added into 2.5 ml of a tested sample, solvent (blank control) or distilled water (positive control), mixed thoroughly, and immediately placed in a thermotank maintained at 37° C. for incubation; and it was taken out 1 hour later and centrifuged at 3000 r/min for 5 minutes. The supernatant was taken for determining the OD value at 540 nm with a spectrophotometer. Hemolysis (Hemolysis Percentage)=(absorbance of sample−absorbance of blank control)×100%÷(absorbance of positive control-absorbance of blank control); and the data processing was performed by SPSS13.0 statistical software with drug concentration as an independent variable X and hemolysis as a dependent variable Y to obtain a linear regression equation; then, the drug concentration causing 50% hemolysis, i.e HD50, was calculated according to the equation. A P-value <0.05 was considered statistically significant.

[1] = tested on: bone marrow mononuclear cell (BMMNC); assay: Monocytic proliferation in bone marrow of mice cultured in vitro (SRB method); type: cell-based, KunMing mice; conditions: cultured 5 days; for Growth Rate of Proliferation %, 1 μg/ml: versus blank control
From the text: 15-20 KunMing mice (purchased from Laboratory Animal Center of Zhengzhou University, Henan) of either sex were killed by cervical vertebral dislocation. Bilateral thighbones were isolated and caput femoris was cut off. The marrow was washed repeatedly with serum-free RPMI1640 (Gibco Corp.), the wash solution containing marrow cells was collected, sucked and blew repeatedly with a pipette to make the cells disperse. After standing for a moment, the supernatant was sucked up and centrifugated at 100 g for 3 min to collect the cell pellet. The cells were resuspended in a culture media and brought to a volume of 5 ml. The cell suspension was added to the upper layer of a centrifugal tube containing 5 ml of a lymphocyte separation medium of mice and centrifugated at 400 g for 30 min. The milk-white bone marrow mononuclear cell (BMMNC) layer in the middle of the interface was collected and washed with serum-free medium RPMI1640 for three times to obtain a BMMNC suspension, which was inoculated into a 96-well plate at forty thousand per well after counting. Positive drugs rhG-CSF (recombinant granulocyte colony-stimulating factor, manufactured by QI LU Pharmaceutical Co., LTD., Shandong) or test samples of different concentrations were added, and meanwhile a blank control group without drug was established. They were cultured in a 5% CO2 incubator at 37 for 5 days. Cell proliferation was measured by a conventional SRB (Sigma) method in which OD at 490 nm was measured after being dyed with SRB. The growth rates of cell proliferation after drug treatment were calculated (Growth rate of cell proliferation=experimental group-blank control group/blank control group*100%).

leukocytes (WBC) = assay: Cyclophosphamide-induced leukopenia in mice: leukocytes (WBC); type: in vivo, Kunming mice
Method: as §1
This experiment mainly studies the effect of G-1, G-6 and G-8 of ursolic acid saponin in increasing leukocytes, and compares the therapeutic effects of aglycon of ursolic acid and oleanolic acid and of the compound G-22 which has been disclosed by a patent.
as §2

WBC = assay: 60Co-γ-induced leukopenia in mice: WBC; type: in vivo, Kunming mice
From the text: In order to illustrate the present invention in detail, with a model induced by ^60Co-γ rays, the effects of G-1 and G-22 on leukocytes of chemotherapy-induced-leukopenia mice were compared. The specific operation and the results are as follows.
Healthy Kunming mice, of which half were male and the other half were female, were divided into 6 groups randomly, with 17-18 in each group. Blood was taken from caudal vein to determine the normal hemogram (leucocyte, erythrocyte, platelet and hemoglobin), and adjustments were made according to body weights and hemogram results. The normal control group and model group were given isometric physiological saline once a day for 7 days, and then the post-radiation hemogram was determined. Except the normal control group, other groups were each subjected to a whole body exposure to ^60Co-γ rays at a total dose of 3.0 Gy to prepare the models of leukopenia in mice, followed by further administration for 14 days. The G-CSF group was adminitrated through subcutaneous injection for 5 days from the irradiation day on and the hemogram was determined by taking blood respectively on day 3, day 7 and day 14 after irradiation.

[2] = Experimental Example 3, 0.8 mg/kg
[3] = Experimental Example 2, 0.8 mg/kg
[4] = Experimental Example 2, 0.8 mg/kg, CY 100 mg/kg x 3 days
[5] = Experimental Example 2, 0.8 mg/kg, especially on day 3 after modeling
[6] = 0.80 mg/kg i.g., 3.0 Gy whole body
[7] = 40 μg/kg subcutaneous injection
[8] = 40 μg/kg s.c. for 5 days from irradiation day, 3.0 Gy
[9] = Experimental Example 2, 40 μg/kg subcutaneous injection
[10] = Experimental Example 3, 40 μg/kg subcutaneous injection

Row | Molecule | platelets, Day 1 after modelng (platelets (PLT); 0.8 mg/kg) | platelets, Day 5 after modeling (platelets (PLT); 0.8 mg/kg) | HD50 (drug concentration causing 50% hemolysis) (erythrocytes) [µg/mL] | Growth Rate of Proliferation %, 1 μg/ml [1] [%] | leukocytes, Day 1 after modeling (leukocytes (WBC); [2]) | leukocytes, Day 5 after modeling (leukocytes (WBC); [2]) | leukocytes (WBC), Day 3 after modeling (leukocytes (WBC); [3]) | leukocytes (WBC), Day 5 after modeling (leukocytes (WBC); [3]) | leukocytes (WBC), Day1 after modeling (leukocytes (WBC); [4]) | difference in increasing leukocytes compared with G-22 (in words) (leukocytes (WBC); [5]) | further results
1 | C[C@H]1[C@H](C)CC[C@]2(C(=O)O[C@@H]3O[C@H](CO)[C@@H](O)[C@H](O)[C@H]3O)CC[C@]3(C)C(=CC[C@@H]4[C@@]5(C)CC[C@H](O[C@@H]6O[C@H](CO)[C@@H](O)[C@H](O)[C@H]6O)C(C)(C)[C@@H]5CC[C@]43C)[C@H]12 [Sample G-3, 3-O-(β-D-glucopyranosyl) ursolic acid-28-O-(β-D-glucopyranosyl) ester] | 473.12 ± 144.68 | 341.93 ± 186.39**★ | 137.99 | 25.2 | 1.16 ± 0.53 | 5.62 ± 2.78 | – | – | – | – | difference in increasing platelets compared with G-22 (in words) (platelets (PLT); 0.8 mg/kg, day 5 after modeling): significant difference in increasing leukocytes and platelets; difference in increasing leukocytes compared with G-22 (in words) (leukocytes (WBC); Experimental Example 3, 0.8 mg/kg, day 5 after modeling): significant difference in increasing leukocytes and platelets
2 | C[C@H]1[C@H](C)CC[C@]2(C(=O)O)CC[C@]3(C)C(=CC[C@@H]4[C@@]5(C)CC[C@H](O[C@@H]6OC[C@H](O)[C@H](O)[C@H]6O)C(C)(C)[C@@H]5CC[C@]43C)[C@H]12 [Sample G-6, 3-O-(α-L-arabopyranosyl) ursolic acid] | – | – | 121.40 | 29.9 | – | – | 7.13 ± 2.61**★ | 17.16 ± 14.13 | 1.19 ± 0.47 | obvious difference in increasing leukocytes | –
3 | C[C@H]1[C@H](C)CC[C@]2(C(=O)O[C@@H]3O[C@H](CO)[C@@H](O)[C@H](O)[C@H]3O)CC[C@]3(C)C(=CC[C@@H]4[C@@]5(C)CC[C@H](O[C@@H]6OC[C@H](O)[C@H](O)[C@H]6O)C(C)(C)[C@@H]5CC[C@]43C)[C@H]12 [Sample G-8, 3-O-(α-L-arabopyranosyl) ursolic acid-28-O-(β-D-glucopyranosyl) ester] | – | – | 69.96 | 29.5 | – | – | 6.91 ± 2.54**★ | 15.32 ± 9.07 | 0.85 ± 0.39 | obvious difference in increasing leukocytes | –
4 | C[C@@H]1CC[C@]2(C(=O)O[C@@H]3O[C@H](CO)[C@@H](O)[C@H](O)[C@H]3O)CC[C@]3(C)C(=CC[C@@H]4[C@@]5(C)CC[C@H](O[C@@H]6OC[C@H](O)[C@H](O)[C@H]6O)C(C)(C)[C@@H]5CC[C@]43C)[C@@H]2[C@]1(C)O [Sample G-22, 3-O-(α-L-arabopyranosyl)-19-hydroxy-ursolic acid-28-O-(β-D-glucopyranosyl) ester, reference compound] | 491.36 ± 126.28 | 210.00 ± 119.38 | – | 15.2 | 0.92 ± 0.28 | 8.81 ± 6.44 | 5.17 ± 1.77 | 11.87 ± 9.53 | 1.08 ± 0.34Δ | – | effect on leucocyte count of leukopenia mice (in words) (WBC; 0.80 mg/kg gastric perfusion, versus model group, day 7 and day 14 after irradiation): no evident effect; WBC, 1 week after administration (WBC; 0.80 mg/kg i.g. once a day for 7 days, before irradiation): 9.50 ± 3.17 109/L; WBC, Day 3 after irradiation (WBC; [6]): 2.21 ± 0.92 109/L; WBC, Day 7 after irradiation (WBC; [6]): 4.08 ± 1.50 109/L; WBC, Day 14 after irradiation (WBC; [6]): 5.44 ± 1.13 109/L; WBC, Normal (WBC; normal hemogram before administration (baseline), 0.80 mg/kg i.g. group): 8.56 ± 2.43 109/L
5 | G-CSF: recombinant granulocyte colony-stimulating factor, manufactured by QI LU Pharmaceutical Co., LTD., Shandong (protein, UniProt P09919 31-207, looked up) Granulocyte …: TPLGPASSLPQSFLLKCLEQVRKIQGDGAALQEKLVSECATYKLCHPEELVLLGHSLGIPWAPLSSCPSQALQLAGCLSQLHSGLFLYQGLLQALEGISPELGPTLDTLQLDVADFATTIWQQMEELGMAPALQPTQGAMPAFASAFQRRAGGVLVASHLQSFLEVSYRVLRHLAQP | – | – | – | – | – | – | – | – | – | – | platelets, Day 1 after modelng (platelets (PLT); [7]): 408.38 ± 86.38; platelets, Day 5 after modeling (platelets (PLT); [7]): 206.64 ± 140.14; effect in increasing platelets (in words) (platelets (PLT); G-CSF 40 μg/kg subcutaneous injection): no obvious effect in increasing platelets; WBC, Day 3 after irradiation (WBC; [8]): 3.71 ± 1.11** 109/L; WBC, Day 7 after irradiation (WBC; [8]): 4.56 ± 1.17** 109/L; WBC, Day 14 after irradiation (WBC; [8]): 7.01 ± 1.52** 109/L; WBC, 1 week after administration (WBC; G-CSF group before irradiation, G-CSF is given only from the irradiation day on): 9.89 ± 3.30 109/L; WBC, Normal (WBC; normal hemogram (baseline), G-CSF group, not yet dosed): 8.64 ± 2.01 109/L; Growth Rate of Proliferation % ([1]; G-CSF positive drug at 5 pg/ml): 33.2%; leukocytes (WBC), Day1 after modeling (leukocytes (WBC); [9]): 1.17 ± 0.33; leukocytes (WBC), Day 3 after modeling (leukocytes (WBC); [9]): 5.93 ± 3.10; leukocytes (WBC), Day 5 after modeling (leukocytes (WBC); [9]): 13.18 ± 5.53; leukocytes, Day 1 after modeling (leukocytes (WBC); [10]): 0.63 ± 0.20; leukocytes, Day 5 after modeling (leukocytes (WBC); [10]): 9.70 ± 5.28
